Data taken from ChEMBL document CHEMBL5346978, “Exploration of Tetrahydroisoquinoline- and Benzo[c]azepine-Based Sphingosine 1-Phosphate Receptor 1 Agonists for the Treatment of Multiple Sclerosis” (J Med Chem, 2023).
The source made the active and inactive calls. The rule behind the calls is not given here.

Tests used:
[1] = Microsomal stability in mouse liver microsomes assessed as parent compound remaining preincubated for 5 mins followed by NADPH addition measured after 30 mins by LC-MS/MS analysis; format: ADME, Microsome; settings: time 35 min, read-out: Stability
[2] = Microsomal stability in human liver microsomes assessed as parent compound remaining preincubated for 5 mins followed by NADPH addition measured after 30 mins by LC-MS/MS analysis; format: ADME, Microsome; settings: time 35 min, read-out: Stability
[3] = molecular target: T1, Sphingosine 1-phosphate receptor 1 (Homo sapiens, UniProt P21453); experiment: Agonist activity at S1P1 (unknown origin) expressed in human HEK293/Galpha15 cells assessed as Ca2+ activation at 1 uM measured for 2 hrs by FLIPR analysis relative to control; format: functional, cell-based
[4] = molecular target: T1, Sphingosine 1-phosphate receptor 1; experiment: Agonist activity at S1P1 (unknown origin) expressed in PathHunter CHO-K1 EDG1 beta-arrestin cells assessed as beta-arrestin2 recruitment incubated for 90 mins by chemiluminescence based assay; format: functional, cell-based
[5] = molecular target: T1, Sphingosine 1-phosphate receptor 1; experiment: Agonist activity at S1P1 (unknown origin) expressed in PathHunter CHO-K1 EDG1 beta-arrestin cells assessed as beta-arrestin2 recruitment at 1 uM incubated for 90 mins by chemiluminescence based assay relative to control; format: functional, cell-based; settings: filed as agonist
[6] = Microsomal stability in rat liver microsomes assessed as parent compound remaining preincubated for 5 mins followed by NADPH addition measured after 30 mins by LC-MS/MS analysis; format: ADME, Microsome; settings: time 35 min, read-out: Stability
[7] = molecular target: T1, Sphingosine 1-phosphate receptor 1; experiment: Agonist activity at S1P1 (unknown origin) expressed in human HEK293/Galpha15 cells assessed as Ca2+ activation measured for 2 hrs by FLIPR analysis; format: functional, cell-based
[8] = molecular target: CYP2D6 (Homo sapiens, UniProt P10635); experiment: Inhibition of CYP2D6 in human liver microsomes using dextromethorphan as substrate assessed as residual activity at 10 uM preincubated for 5 mins followed by substrate addition and measured after 15 mins in presence of NADPH by LC-MS/MS analysis; format: ADME, Microsome; settings: probe dextromethorphan, time 20 min, read-out: Activity
[9] = molecular target: CYP3A4 (Homo sapiens, UniProt P08684); experiment: Inhibition of CYP3A4 in human liver microsomes using midazolam as substrate assessed as residual activity at 10 uM preincubated for 5 mins followed by substrate addition and measured after 15 mins in presence of NADPH by LC-MS/MS analysis; format: ADME, Microsome; settings: probe midazolam, time 20 min, read-out: Activity
[10] = molecular target: CYP2C9 (Homo sapiens, UniProt P11712); experiment: Inhibition of CYP2C9 in human liver microsomes using diclofenac as substrate assessed as residual activity at 10 uM preincubated for 5 mins followed by substrate addition and measured after 15 mins in presence of NADPH by LC-MS/MS analysis; format: ADME, Microsome; settings: probe diclofenac, time 20 min, read-out: Activity
[11] = molecular target: T2, CYP1A2 (Homo sapiens, UniProt P05177); experiment: Inhibition of CYP1A2 in human liver microsomes using phenacetin as substrate assessed as residual activity at 10 uM preincubated for 5 mins followed by substrate addition and measured after 15 mins in presence of NADPH by LC-MS/MS analysis; format: ADME, Microsome; settings: probe phenacetin, time 20 min, read-out: Activity
T2 sequence (P05177 whole entry): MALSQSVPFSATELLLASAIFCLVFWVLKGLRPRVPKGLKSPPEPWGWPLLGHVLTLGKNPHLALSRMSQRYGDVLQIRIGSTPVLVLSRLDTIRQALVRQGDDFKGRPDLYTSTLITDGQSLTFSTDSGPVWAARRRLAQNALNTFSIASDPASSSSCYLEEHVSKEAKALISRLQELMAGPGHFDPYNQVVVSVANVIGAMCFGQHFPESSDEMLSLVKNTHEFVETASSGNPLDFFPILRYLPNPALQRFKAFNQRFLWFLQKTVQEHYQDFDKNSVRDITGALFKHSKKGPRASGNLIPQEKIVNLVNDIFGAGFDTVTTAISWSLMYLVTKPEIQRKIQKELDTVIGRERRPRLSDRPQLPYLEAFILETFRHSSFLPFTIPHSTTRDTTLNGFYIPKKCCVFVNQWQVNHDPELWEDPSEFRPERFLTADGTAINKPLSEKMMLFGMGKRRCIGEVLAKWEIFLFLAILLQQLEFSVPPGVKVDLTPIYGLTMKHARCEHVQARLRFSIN

[12] = molecular target: Sphingosine 1-phosphate receptor 3 (Homo sapiens, UniProt Q99500); experiment: Agonist activity at S1P3 (unknown origin) expressed in PathHunter CHO-K1 EDG1 beta-arrestin cells assessed as beta-arrestin recruitment; format: functional, cell-based
[13] = molecular target: T3, Sphingosine 1-phosphate receptor 4 (Homo sapiens, UniProt O95977); experiment: Agonist activity at S1P4 (unknown origin) expressed in PathHunter CHO-K1 EDG1 beta-arrestin cells assessed as beta-arrestin recruitment; format: functional, cell-based
T3 sequence (O95977 whole entry): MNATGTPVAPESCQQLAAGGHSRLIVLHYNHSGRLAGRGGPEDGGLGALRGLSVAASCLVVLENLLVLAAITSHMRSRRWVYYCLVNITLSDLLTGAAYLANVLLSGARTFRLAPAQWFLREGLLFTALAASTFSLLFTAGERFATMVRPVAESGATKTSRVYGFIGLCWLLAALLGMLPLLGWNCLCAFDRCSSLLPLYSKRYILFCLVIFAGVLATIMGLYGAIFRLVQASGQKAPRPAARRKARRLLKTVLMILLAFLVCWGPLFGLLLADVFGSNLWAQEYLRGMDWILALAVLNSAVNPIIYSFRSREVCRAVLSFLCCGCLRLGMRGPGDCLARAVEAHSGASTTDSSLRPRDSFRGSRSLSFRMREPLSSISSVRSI

[14] = molecular target: T3, Sphingosine 1-phosphate receptor 4; experiment: Agonist activity at S1P4 (unknown origin) expressed in CHO cells assessed as Ca2+ activation; format: functional, cell-based
[15] = AUClast in ICR mouse at 10 mg/kg, po measured at 0.25 to 12 hrs by LC-MS/MS analysis; format: ADME, organism-based; design: time 0.25-12 hrs, dose 10 mg/kg, route po; settings: in vivo
[16] = Tmax in ICR mouse at 10 mg/kg, po measured at 0.25 to 12 hrs by LC-MS/MS analysis; format: ADME, organism-based; settings: in vivo, time 0.25-12 hrs
[17] = Observed MRT (infinitive) in ICR mouse at 1 mg/kg, iv measured at 0.25 to 12 hrs by LC-MS/MS analysis; format: ADME, organism-based; settings: in vivo, time 0.25-12 hrs
[18] = Oral bioavailability in ICR mouse at 10 mg/kg measured at 0.25 to 12 hrs by LC-MS/MS analysis; format: ADME, organism-based; settings: in vivo, time 0.25-12 hrs
[19] = Cmax in ICR mouse at 10 mg/kg, po measured at 0.25 to 12 hrs by LC-MS/MS analysis; format: ADME, organism-based; design: time upper 12 hrs, dose 10 mg/kg, time lower 0.25 hrs, route po; settings: in vivo
[20] = system: Mus musculus; experiment: In vivo agonist activity at S1P1 in mouse assessed as reduction in peripheral lymphocyte count at 10 mg/kg, po measured at 3 hrs; format: functional, organism-based
[21] = Half life in ICR mouse at 1 mg/kg, iv measured at 0.25 to 12 hrs by LC-MS/MS analysis; format: ADME, organism-based; settings: in vivo, time 0.25-12 hrs
[22] = Observed volume of distribution at steady state in ICR mouse at 1 mg/kg, iv measured at 0.25 to 12 hrs by LC-MS/MS analysis; format: ADME, organism-based; settings: in vivo, time 0.25-12 hrs, read-out: Vdss
[23] = Observed clearance in ICR mouse at 1 mg/kg, iv measured at 0.25 to 12 hrs by LC-MS/MS analysis; format: ADME, organism-based; settings: in vivo, time 0.25-12 hrs
[24] = Half life in ICR mouse at 10 mg/kg, po measured at 0.25 to 12 hrs by LC-MS/MS analysis; format: ADME, organism-based; settings: in vivo, time 0.25-12 hrs
[25] = Observed MRT (infinitive) in ICR mouse at 10 mg/kg, po measured at 0.25 to 12 hrs by LC-MS/MS analysis; format: ADME, organism-based; settings: in vivo, time 0.25-12 hrs
[26] = AUClast in ICR mouse at 1 mg/kg, iv measured at 0.25 to 12 hrs by LC-MS/MS analysis; format: ADME, organism-based; design: time lower 0.25 hrs, dose 1 mg/kg, time upper 12 hrs, route iv; settings: in vivo
[27] = Microsomal stability in mouse liver microsomes assessed as parent compound remaining preincubated for 5 mins followed by NADPH addition measured after 60 mins by LC-MS/MS analysis; format: ADME, Microsome; settings: time 65 min, read-out: Stability
[28] = Microsomal stability in human liver microsomes assessed as parent compound remaining preincubated for 5 mins followed by NADPH addition measured after 60 mins by LC-MS/MS analysis; format: ADME, Microsome; settings: time 65 min, read-out: Stability
[29] = Microsomal stability in rat liver microsomes assessed as parent compound remaining preincubated for 5 mins followed by NADPH addition measured after 60 mins by LC-MS/MS analysis; format: ADME, Microsome; settings: time 65 min, read-out: Stability

CYP3A4, sequence (P08684 whole entry): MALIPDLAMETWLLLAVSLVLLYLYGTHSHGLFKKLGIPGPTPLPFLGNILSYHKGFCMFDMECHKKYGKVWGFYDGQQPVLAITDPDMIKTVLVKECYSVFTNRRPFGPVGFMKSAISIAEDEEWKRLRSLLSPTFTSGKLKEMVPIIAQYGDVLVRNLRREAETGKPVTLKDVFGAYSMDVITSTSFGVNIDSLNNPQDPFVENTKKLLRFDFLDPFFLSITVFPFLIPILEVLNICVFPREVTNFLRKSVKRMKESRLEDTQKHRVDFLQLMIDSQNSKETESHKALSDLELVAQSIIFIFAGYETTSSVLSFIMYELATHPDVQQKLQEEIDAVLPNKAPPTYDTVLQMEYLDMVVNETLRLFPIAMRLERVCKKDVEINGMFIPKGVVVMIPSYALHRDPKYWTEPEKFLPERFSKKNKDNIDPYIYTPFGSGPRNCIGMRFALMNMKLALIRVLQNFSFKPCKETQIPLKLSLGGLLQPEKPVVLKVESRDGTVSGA
T1 sequence (P21453 whole entry): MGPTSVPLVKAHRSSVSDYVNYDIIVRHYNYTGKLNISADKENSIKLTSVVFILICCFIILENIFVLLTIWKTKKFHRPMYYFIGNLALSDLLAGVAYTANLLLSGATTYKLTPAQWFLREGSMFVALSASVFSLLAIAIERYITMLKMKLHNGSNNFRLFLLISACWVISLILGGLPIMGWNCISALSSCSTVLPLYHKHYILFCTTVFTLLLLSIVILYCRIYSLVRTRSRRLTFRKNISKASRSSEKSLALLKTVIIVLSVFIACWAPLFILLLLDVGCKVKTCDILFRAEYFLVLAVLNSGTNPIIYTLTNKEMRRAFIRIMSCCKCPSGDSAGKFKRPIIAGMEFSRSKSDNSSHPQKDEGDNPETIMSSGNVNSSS
CYP2C9, sequence (P11712 whole entry): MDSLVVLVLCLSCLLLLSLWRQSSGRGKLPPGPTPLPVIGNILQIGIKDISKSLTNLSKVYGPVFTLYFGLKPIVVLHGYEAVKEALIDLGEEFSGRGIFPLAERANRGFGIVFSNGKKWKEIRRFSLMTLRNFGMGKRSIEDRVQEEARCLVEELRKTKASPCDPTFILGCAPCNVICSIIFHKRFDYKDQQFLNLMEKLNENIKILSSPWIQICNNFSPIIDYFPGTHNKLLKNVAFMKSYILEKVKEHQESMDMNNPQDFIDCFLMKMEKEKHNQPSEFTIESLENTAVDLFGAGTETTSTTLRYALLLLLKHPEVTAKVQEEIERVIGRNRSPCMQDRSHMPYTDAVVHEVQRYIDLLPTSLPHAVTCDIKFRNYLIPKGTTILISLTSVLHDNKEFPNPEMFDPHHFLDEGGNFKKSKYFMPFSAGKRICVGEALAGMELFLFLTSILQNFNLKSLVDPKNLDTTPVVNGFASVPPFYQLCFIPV
CYP2D6, sequence (P10635 whole entry): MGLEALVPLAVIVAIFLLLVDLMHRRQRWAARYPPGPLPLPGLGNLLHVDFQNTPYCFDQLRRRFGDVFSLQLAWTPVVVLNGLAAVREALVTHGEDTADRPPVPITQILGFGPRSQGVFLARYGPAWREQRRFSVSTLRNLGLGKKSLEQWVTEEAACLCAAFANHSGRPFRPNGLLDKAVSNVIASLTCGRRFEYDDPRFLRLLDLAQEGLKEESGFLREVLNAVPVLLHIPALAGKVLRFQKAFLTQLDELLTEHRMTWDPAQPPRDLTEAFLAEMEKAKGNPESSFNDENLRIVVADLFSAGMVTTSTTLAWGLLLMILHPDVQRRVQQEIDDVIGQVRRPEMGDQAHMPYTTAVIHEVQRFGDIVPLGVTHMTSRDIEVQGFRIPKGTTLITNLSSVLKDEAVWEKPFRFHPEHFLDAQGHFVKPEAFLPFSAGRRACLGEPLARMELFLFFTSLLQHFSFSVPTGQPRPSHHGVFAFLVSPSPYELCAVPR
Sphingosine 1-phosphate receptor 3, sequence (Q99500 whole entry): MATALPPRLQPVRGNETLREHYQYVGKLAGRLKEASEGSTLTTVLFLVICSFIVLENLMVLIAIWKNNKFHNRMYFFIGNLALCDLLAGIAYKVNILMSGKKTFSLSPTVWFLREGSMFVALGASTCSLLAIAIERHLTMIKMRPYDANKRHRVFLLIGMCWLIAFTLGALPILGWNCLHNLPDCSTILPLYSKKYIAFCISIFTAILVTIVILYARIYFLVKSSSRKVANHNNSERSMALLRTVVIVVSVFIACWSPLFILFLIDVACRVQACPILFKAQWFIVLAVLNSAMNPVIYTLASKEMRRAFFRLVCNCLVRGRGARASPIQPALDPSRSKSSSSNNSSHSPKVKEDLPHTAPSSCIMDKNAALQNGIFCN

SMILES	remaining at 0.5 h [1]	remaining at 0.5 h [2]	EC50 [4]	Activity [5]	remaining at 0.5 h [6]	EC50 [7]	activity at 0.25 h, 10 µM [8]	activity at 0.25 h, 10 µM [9]	activity at 0.25 h, 10 µM [10]	Activity ([3]; filed as agonist)	activity at 0.25 h, 10 µM [11]	other results
CNC(=O)CCS(=O)(=O)N1CCc2cc(OCc3ccc(OC(C)C)c(C#N)c3)ccc2C1	15.8%	21.9%	0.362 µM	107%	13.4%	–	–	–	–	–	–	Activity [3]: 4%
CC(C)Oc1ccc(COc2ccc3c(n2)CCN(S(=O)(=O)CCC(=O)O)C3)cc1C#N	94.2%	96%	0.289 µM	82%	98.1%	0.226 µM	85.3%	85.4%	80.1%	82%	84.5%	–
CC(C)Oc1ccc(COc2ccc3c(c2)CCN(C(=O)CCC(=O)O)C3)cc1C#N	100%	94.3%	0.455 µM	81%	92.1%	0.275 µM	54.9%	26.3%	27.6%	79%	59.7%	–
CCCCCCCCCCCCC/C=C/[C@@H](O)[C@@H](N)COP(=O)(O)O	–	–	–	–	–	–	–	–	–	–	–	EC50 [12]: 0.022 µM; EC50 [13]: 0.092 µM; EC50 [14]: 0.009 µM
CC(C)Oc1ccc(COc2ccc3c(c2)CCN(S(=O)(=O)CCC(=O)O)C3)cc1C#N	100%	90.2%	0.05 µM	125%	93.8%	0.014 µM	91.9%	87.5%	75.4%	100%	80.4%	AUC(0-t) [15]: 4.29 µg·h/mL; Tmax [16]: 0.5 h; MRT inf [17]: 1 h; bioavailability [18]: 46.4%; Cmax [19]: 2.29 µg/mL; Activity [20]: Active; half-life [21]: 2.4 h; Vd [22]: 1.1 L/kg; clearance [23]: 1.09 L/h/kg; half-life [24]: 1.3 h; MRT inf [25]: 1.9 h; AUC(0-t) [26]: 0.925 µg·h/mL
CC(C)Oc1ccc(COc2ccc3c(c2)CCN(C(=O)CCC(=O)N(C)C)C3)cc1C#N	11.4%	24.4%	0.567 µM	76%	13.9%	–	–	–	–	–	–	Activity [3]: 25%
CC(C)Oc1ccc(COc2ccc3c(c2)OCCN(S(=O)(=O)CC(=O)O)C3)cc1C#N	–	–	0.0505 µM	91%	–	0.067 µM	91.1%	84.6%	87%	104%	88.1%	remaining at 1 h [27]: 87.7%; remaining at 1 h [28]: 97.1%; remaining at 1 h [29]: 99.6%
